This passage reports Activity and IC50 results from ChEMBL document CHEMBL6103661, “Identification of Phosphodiesterase-7 Inhibitors with Spiro[[1,3]oxazolo[5,4-f]quinazoline-9,1'-cyclohexan]-7-one Scaffold for the Treatment of Chronic Fatigue” (ACS Med Chem Lett, 2025).

In one assay the test system is Soleus muscle. As to the kind of experiment: Protection against 12.5 mM KCl-induced loss of contractile force in Sprague-Dawley rat soleus muscle assessed as mean residual contractile force at 1 uM pretreated for 10 mins followed by KCl stimulation at 5 mins interval for 30 mins and measured in presence of salbutamol by isometric force transducer method relative to control. The format is functional. As to conditions: time 40 min.

Assay [1] deals with High affinity 3',5'-cyclic-AMP phosphodiesterase 7A (Homo sapiens, UniProt Q13946). The experiment in a line: Inhibition of human recombinant PDE7A expressed in Sf9 insect cells using FAM-cAMP as substrate preincubated for 15 mins followed by substrate addition and measured after 30 mins by spectrofluorimetry.
Sequence of High affinity 3',5'-cyclic-AMP phosphodiesterase 7A (Q13946 whole entry): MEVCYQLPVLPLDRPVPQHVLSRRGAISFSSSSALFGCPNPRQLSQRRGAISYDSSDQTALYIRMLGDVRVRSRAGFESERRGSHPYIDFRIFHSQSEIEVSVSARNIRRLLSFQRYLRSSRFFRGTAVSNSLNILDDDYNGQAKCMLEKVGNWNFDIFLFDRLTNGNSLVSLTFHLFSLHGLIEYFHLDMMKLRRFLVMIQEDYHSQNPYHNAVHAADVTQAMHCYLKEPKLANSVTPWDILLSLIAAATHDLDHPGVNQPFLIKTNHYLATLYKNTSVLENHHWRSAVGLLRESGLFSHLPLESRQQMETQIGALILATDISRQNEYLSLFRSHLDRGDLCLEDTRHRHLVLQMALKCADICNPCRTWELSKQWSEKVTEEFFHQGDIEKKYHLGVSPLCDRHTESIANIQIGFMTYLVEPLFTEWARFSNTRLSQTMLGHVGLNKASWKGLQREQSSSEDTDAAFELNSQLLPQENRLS
Assay [2] has as its target 3',5'-cyclic-AMP phosphodiesterase 7B (Homo sapiens, UniProt Q9NP56). As to the kind of experiment: Inhibition of human recombinant PDE7B expressed in Sf9 insect cells using FAM-cAMP as substrate preincubated for 15 mins followed by substrate addition and measured after 30 mins by spectrofluorimetry.

pIC50: −log10 of the molar value.

Sequence of 3',5'-cyclic-AMP phosphodiesterase 7B (Q9NP56 whole entry): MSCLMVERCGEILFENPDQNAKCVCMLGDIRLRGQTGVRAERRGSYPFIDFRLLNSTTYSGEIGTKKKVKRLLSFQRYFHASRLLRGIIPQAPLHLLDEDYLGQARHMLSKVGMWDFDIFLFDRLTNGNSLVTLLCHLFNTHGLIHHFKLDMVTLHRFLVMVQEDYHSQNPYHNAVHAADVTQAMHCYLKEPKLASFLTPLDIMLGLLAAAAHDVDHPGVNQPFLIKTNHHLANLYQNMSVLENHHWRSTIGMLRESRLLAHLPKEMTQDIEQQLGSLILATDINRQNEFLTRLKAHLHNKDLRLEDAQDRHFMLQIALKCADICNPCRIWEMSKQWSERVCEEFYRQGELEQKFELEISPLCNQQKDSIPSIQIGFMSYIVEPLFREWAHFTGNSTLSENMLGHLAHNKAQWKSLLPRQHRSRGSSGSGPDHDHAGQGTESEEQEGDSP

Take `CN(C)C1CCN(C(=O)c2cc3cc(Cl)c4c(c3o2)C2(CCCCC2)NC(=O)N4)CC1`: in the assay on Soleus muscle, the Activity was 73.7%. Further, the pIC50 in assay [1] is 7.55; in assay [2], 7.24.
With `CN(C)C(=O)CNCc1nc2cc(Cl)c3c(c2o1)C1(CCCCC1)NC(=O)N3`, the Activity in the assay on Soleus muscle is 60.5%. Moreover, the pIC50 in assay [1] is 8.25.

As a reminder, the pIC50 is −log10 of the IC50, conventionally taken in molar units.
